Measurements as given in ChEMBL document CHEMBL5543140 (J Med Chem, 2024).
pEC50, pKi: −log10 of the molar value. Calls of active or inactive are those of the source. No cut-off for these calls is given here.

What was measured:
[1] = Metabolic stability in Sprague-Dawley rat liver microsomes assessed as deuteration effect measured upto 120 mins by LC-MS/MS analysis; assay type: ADME, Microsome; settings: 2 h
[2] = Metabolic stability of the compound assessed as recombinant human MAO-mediated oxidative metabolism by measuring compound remaining measured upto 120 mins by LC-MS/MS analysis; assay type: ADME; settings: 2 h
[3] = target: T1, 5-hydroxytryptamine receptor 2A (Homo sapiens, UniProt P28223); assay: Agonist activity at human 5-HT2A receptor expressed in HEK293 cells assessed as IP2 production measured after 30 mins incubation by HTRF assay; assay type: functional, cell-based; settings: for EC50: hek293; for pEC50: read-out: EC50
T1 sequence (P28223 whole entry): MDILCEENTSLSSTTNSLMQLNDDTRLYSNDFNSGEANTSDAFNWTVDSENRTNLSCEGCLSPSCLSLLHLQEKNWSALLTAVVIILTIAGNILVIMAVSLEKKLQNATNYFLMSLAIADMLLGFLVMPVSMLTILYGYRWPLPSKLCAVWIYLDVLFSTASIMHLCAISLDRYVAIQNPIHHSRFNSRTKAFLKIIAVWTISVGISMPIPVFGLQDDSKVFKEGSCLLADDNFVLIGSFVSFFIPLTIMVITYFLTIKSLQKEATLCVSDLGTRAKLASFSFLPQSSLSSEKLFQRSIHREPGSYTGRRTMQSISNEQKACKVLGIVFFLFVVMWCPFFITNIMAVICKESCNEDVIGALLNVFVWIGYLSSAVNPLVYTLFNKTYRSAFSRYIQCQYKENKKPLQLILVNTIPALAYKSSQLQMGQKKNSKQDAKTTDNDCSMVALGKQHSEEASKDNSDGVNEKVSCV

[4] = Lipophilicity, logP of the compound; assay type: physicochemical; settings: octanol/water
[5] = target: 5-hydroxytryptamine receptor 2B (Homo sapiens, UniProt P41595); assay: Displacement of [3H]LSD from human 5-HT2B receptor expressed in HEK293 cell membrane incubated for 90 mins by microbeta liquid scintillation counting method; assay type: cell membranes
5-hydroxytryptamine receptor 2B, sequence (P41595 whole entry): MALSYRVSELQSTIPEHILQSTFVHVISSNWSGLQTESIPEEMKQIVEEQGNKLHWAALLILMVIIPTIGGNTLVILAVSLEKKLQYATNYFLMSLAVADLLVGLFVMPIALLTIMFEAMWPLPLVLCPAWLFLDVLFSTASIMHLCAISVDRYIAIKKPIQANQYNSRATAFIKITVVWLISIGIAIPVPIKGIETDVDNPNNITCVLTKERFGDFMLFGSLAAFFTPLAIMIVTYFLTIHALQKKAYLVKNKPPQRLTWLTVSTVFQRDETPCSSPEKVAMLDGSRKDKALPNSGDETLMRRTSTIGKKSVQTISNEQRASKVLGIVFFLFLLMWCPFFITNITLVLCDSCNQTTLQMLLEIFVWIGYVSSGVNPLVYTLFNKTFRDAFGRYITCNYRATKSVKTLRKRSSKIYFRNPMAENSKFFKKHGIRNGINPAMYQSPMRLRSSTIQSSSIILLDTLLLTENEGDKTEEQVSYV

[6] = target: T2, 5-hydroxytryptamine receptor 2C (Homo sapiens, UniProt P28335); assay: Displacement of [3H]LSD from human 5-HT2C receptor expressed in HEK293 cell membrane incubated for 90 mins by microbeta liquid scintillation counting method; assay type: cell membranes
T2 sequence (P28335 whole entry): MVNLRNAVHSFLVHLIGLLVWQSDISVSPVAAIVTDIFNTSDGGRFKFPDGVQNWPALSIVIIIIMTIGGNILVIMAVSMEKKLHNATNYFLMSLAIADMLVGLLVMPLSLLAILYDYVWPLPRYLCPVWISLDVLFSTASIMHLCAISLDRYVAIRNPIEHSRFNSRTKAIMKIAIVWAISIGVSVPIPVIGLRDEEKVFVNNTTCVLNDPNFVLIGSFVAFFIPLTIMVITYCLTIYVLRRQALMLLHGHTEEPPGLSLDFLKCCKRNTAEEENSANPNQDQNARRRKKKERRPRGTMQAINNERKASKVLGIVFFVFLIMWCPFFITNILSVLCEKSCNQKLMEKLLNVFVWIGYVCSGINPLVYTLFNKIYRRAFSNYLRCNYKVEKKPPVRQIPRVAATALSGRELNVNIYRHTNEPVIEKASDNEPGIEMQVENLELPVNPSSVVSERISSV

Mus musculus [7] = assay: Psychedelic effect in C57BL/6J mouse assessed as number of head-twitch responses by visual observation at 3 mg/kg, po measured for 3 mins at 5 to 25 min; assay type: functional; settings: 0.05 h
Mus musculus [8] = assay: Psychedelic effect in C57BL/6J mouse assessed as number of head-twitch responses by visual observation at 3 mg/kg, po measured for 3 mins at 160 to 170 min; assay type: functional; settings: 0.05 h
[9] = target: T1, 5-hydroxytryptamine receptor 2A; assay: Displacement of [3H]LSD from human 5-HT2A receptor expressed in HEK293 cell membrane incubated for 90 mins by microbeta liquid scintillation counting method; assay type: cell membranes; settings: for pKi: read-out: Ki; for Ki: read-out: pKi (converted)
Mus musculus [10] = assay: Psychedelic effect in C57BL/6J mouse assessed as number of head-twitch responses by visual observation at 3 to 30 mg/kg, po; assay type: functional, organism-based; settings: dose 3-30 mg/kg
[11] = target: T1, 5-hydroxytryptamine receptor 2A; assay: Agonist activity at human 5-HT2A receptor expressed in HEK293 cells assessed as maximal IP2 production measured after 30 mins incubation by HTRF assay relative to control; assay type: functional, cell-based; settings: filed as agonist

Cl.[2H]C([2H])([2H])Oc1cc(SC)c(OC([2H])([2H])[2H])cc1CCN
Stability [1]: Stable | Stability [2]: Stable

COc1cc(P(C)(C)=O)c(OC)cc1CCN.Cl
EC50 [3]: Not Active | logP [4]: -1.67

COc1cc(SCCCF)c(OC)cc1CCN
pKi [5]: 8.21 | pKi [6]: 8.16 | Activity (Mus musculus [7]): 7.4 | Activity (Mus musculus [8]): 4.7

Cl.[2H]C([2H])(N)Cc1cc(OC)c(C(F)(F)F)cc1OC
Stability [1]: Stable | Stability [2]: Stable

COc1cc(C[C@H](C)N)c(O)cc1SC.Cl
Stability [1]: Stable | Stability [2]: Stable

COc1cc([S+]([O-])C(F)(F)F)c(OC)cc1CCN.Cl (configuration not stated)
pKi [9]: 7.72 | pKi [5]: 8.19 | pKi [6]: 7.68 | Activity (Mus musculus [7]): 17 | Activity (Mus musculus [8]): 18

COc1cc(SCC(F)(F)C(F)F)c(OC)cc1CCN.Cl
pKi [9]: 7.47 | Ki [9]: 38 nM | pKi [5]: 8.35 | pKi [6]: 7.96 | Activity (Mus musculus [7]): 3.1 | Activity (Mus musculus [8]): 5.6

COc1cc(SC)c(OC)cc1C[C@@H](C)N.Cl
Stability [1]: Stable | Stability [2]: Stable

COc1cc(SSC(C)(C)C)c(OC)cc1CCN.Cl
pKi [9]: 7.23 | pKi [5]: 8.00 | pKi [6]: 7.59 | Activity (Mus musculus [7]): 0.6 | Activity (Mus musculus [8]): 4.8

Cl.[2H]C([2H])([2H])Oc1cc(C(F)(F)F)c(OC([2H])([2H])[2H])cc1CCN
Stability [1]: Stable | Stability [2]: Stable

COc1cc(SC(F)F)c(OC)cc1CCN.Cl
Ki [9]: 6.46 nM | pKi [5]: 7.62 | pKi [6]: 7.80 | Activity (Mus musculus [7]): 33 | Activity (Mus musculus [8]): 17

COc1cc(SCCC(F)F)c(OC)cc1CCN.Cl
pKi [9]: 7.64 | pKi [5]: 8.17 | pKi [6]: 8.05 | Activity (Mus musculus [7]): 5 | Activity (Mus musculus [8]): 2.6

COc1cc(SC(C)(C)C)c(OC)cc1CCN
pEC50 [3]: 6.82 | Activity (Mus musculus [10]): inactive

Cl.[2H]C([2H])([2H])C(c1cc(OC)c(CCN)cc1OC)(C([2H])([2H])[2H])C([2H])([2H])[2H]
Stability [1]: Stable | Stability [2]: Stable

COc1cc(C2CCCC2)c(OC)cc1CCN
pKi [9]: 6.87

COc1cc(OCCCF)c(OC)cc1CCN
pKi [9]: 5.79 | Ki [9]: 1700 nM

COc1cc(SCCC(F)(F)F)c(OC)cc1CCN.Cl
pKi [9]: 8.00 | pKi [5]: 8.26 | pKi [6]: 7.96 | Activity (Mus musculus [7]): 3.3 | Activity (Mus musculus [8]): 6.1

COc1cc(SCC(F)F)c(OC)cc1CCN
pKi [9]: 6.84

COc1cc(N(C(C)C)C(C)C)c(OC)cc1CCN.Cl.Cl
EC50 [3]: Not Active | logP [4]: 2.7

COc1cc(SCC#N)c(OC)cc1CCN
pKi [9]: 7.44 | pEC50 [3]: 8.21 | Emax [11]: 77%

Cl.[2H]C([2H])(N)Cc1cc(OC)c(SC)cc1OC
Stability [1]: Stable | Stability [2]: Stable
